The text below walks through data of patent US4335041A, “High sensitivity assays for angiotensin converting enzyme” (Ventrex Laboratories, Inc., priority 1980, dated 1982).

Peptide text beside a SMILES is read from it. * marks the point of attachment. Bz = O=C(c1ccccc1)*

Data set [1] concerns enzyme isolated from hog lung. Particulars: cited from earlier work.
Data set [2] addresses T1, Guinea pig serum ACE (Cavia porcellus, UniProt H0UWL7).
T1 sequence (H0UWL7 33-1234): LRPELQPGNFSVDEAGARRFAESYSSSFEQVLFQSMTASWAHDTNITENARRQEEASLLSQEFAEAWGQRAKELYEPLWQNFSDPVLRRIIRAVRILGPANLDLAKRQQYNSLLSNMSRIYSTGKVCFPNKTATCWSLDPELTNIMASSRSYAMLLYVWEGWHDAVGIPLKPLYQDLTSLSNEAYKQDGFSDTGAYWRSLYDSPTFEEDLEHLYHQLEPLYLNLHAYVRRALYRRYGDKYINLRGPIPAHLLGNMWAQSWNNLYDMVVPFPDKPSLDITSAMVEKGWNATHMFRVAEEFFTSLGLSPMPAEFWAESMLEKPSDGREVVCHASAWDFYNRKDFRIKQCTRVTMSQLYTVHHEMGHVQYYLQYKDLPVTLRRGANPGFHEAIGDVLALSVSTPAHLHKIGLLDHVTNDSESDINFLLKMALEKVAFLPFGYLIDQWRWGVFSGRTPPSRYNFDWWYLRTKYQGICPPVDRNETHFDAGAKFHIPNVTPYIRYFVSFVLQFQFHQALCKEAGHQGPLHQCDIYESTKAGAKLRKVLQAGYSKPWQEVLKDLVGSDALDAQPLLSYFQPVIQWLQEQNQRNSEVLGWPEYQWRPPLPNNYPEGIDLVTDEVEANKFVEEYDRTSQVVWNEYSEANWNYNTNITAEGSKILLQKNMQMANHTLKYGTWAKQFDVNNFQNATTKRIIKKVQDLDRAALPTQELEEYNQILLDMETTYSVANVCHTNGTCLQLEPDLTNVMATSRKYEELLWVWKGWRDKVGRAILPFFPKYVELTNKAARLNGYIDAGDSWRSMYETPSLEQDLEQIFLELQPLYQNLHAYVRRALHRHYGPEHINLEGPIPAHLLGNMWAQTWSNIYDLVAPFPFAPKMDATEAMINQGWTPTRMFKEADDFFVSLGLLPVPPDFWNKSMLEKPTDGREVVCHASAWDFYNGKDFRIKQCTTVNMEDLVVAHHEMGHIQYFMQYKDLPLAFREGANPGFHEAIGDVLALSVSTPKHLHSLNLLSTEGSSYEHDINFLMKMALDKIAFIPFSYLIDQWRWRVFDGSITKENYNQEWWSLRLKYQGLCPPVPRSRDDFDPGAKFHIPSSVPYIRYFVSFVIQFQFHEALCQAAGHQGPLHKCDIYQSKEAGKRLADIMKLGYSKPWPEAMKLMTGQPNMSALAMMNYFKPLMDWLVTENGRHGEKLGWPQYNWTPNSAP
Nature of the data set: Kinetics of sulfate-stimulated HipHisLeu hydrolysis (Example 4). In kind it is biochemical. On the procedure:
In each assay, 50 μl of Guinea pig serum diluted 1-20 (v/v) in the reaction buffer was mixed with 50 μl of buffer containing sufficient ^3 H-HipHisLeu to provide approximately 100,000 cpm total, together with sufficient unlabeled HipHisLeu to produce the desired substrate concentrations, as indicated in Table 2. […] The reaction mixture was then extracted with 1 ml ethyl acetate. 500 μl of the ethyl acetate fraction was sampled and counted in a scintillation counter.

Data set [3] concerns ACE from rabbit lung. Particulars: sodium chloride removed; cited from earlier work.
The target in data set [4] is T2, Guinea pig urinary ACE (Cavia porcellus, UniProt H0UWL7).
T2 sequence (H0UWL7 33-1302): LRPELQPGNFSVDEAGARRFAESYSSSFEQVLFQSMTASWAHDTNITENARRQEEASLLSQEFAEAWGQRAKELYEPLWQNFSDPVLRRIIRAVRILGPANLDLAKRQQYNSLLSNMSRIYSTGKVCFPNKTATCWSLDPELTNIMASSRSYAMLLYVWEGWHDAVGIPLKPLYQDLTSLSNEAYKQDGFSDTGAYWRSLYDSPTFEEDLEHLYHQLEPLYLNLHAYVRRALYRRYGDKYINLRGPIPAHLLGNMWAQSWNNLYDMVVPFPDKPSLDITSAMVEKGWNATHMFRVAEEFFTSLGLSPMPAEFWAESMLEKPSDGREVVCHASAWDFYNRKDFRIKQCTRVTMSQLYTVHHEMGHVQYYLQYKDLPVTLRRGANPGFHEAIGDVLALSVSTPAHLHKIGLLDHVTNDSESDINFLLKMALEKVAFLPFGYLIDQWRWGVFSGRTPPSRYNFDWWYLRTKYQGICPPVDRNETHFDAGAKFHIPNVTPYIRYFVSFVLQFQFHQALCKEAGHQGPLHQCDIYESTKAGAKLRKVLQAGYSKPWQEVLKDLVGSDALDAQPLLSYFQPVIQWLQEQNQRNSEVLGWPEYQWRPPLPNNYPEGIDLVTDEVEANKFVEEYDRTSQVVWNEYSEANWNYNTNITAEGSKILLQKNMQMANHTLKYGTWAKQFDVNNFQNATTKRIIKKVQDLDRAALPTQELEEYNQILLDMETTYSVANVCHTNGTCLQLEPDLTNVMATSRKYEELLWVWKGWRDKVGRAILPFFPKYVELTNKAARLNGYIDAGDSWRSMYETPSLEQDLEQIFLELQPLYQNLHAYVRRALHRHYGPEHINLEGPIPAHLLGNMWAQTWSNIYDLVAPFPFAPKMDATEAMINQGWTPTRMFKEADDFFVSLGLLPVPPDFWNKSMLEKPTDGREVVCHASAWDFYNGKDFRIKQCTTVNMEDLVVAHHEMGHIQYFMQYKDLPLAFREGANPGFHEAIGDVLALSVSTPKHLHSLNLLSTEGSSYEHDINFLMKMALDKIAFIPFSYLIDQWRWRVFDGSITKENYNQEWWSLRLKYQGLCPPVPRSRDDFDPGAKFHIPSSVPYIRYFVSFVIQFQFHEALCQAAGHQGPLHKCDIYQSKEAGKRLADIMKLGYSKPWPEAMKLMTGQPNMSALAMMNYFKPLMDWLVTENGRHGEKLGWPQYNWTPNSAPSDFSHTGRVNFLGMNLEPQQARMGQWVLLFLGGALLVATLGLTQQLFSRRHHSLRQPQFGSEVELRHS
The data set is described as follows: Sulfate and chloride effects on substrate hydrolysis (Example 3). In kind it is biochemical. On the procedure:
^3 H-HipHisLeu prepared as described in Example 2 and ^3 H-benzoylPheAlaPro, prepared as described in Example 5, were used as substrates for Guinea pig urinary ACE, prepared as described in Example 1. […] All incubations were carried out at 37° C. for 10 minutes. Enzyme was diluted in the reaction buffer to provide not more than 15% hydrolysis during the 10 minute incubation. Enzyme, 50 μl, was mixed with 50 μl ^3 H-HipHisLeu, 0.2 mM, having 150,000 total counts pr minute (cpm), or with ^3 H-benzoylPheAlaPro having 10,000 cpm to 200,000 cpm. Reactions were carried out in the presence of 0.1 M NaCl or in the absence of NaCl, with varying amounts of Na2 SO4 added.

The nature of data set [5]: Solvent extraction from acidified reaction mixture. In kind it is physicochemical. The source says: While a variety of organic solvents may be suitable for the extraction step, it is preferred to employ toluene.
The subject of data set [6] is ACE. Nature of the data set: Response of 3H-benzoylPheAlaPro hydrolysis to added NaCl. Particulars: 0.05 M added sodium chloride, 0.05 M Hepes pH 8.0. In kind it is biochemical. The procedure: An even more sensitive assay for ACE activity has been developed using the novel compound ^3 H-benzoylPheAlaPro as substrate. This new substrate can be used to assay ACE in human urine in incubations as short as 15 minutes. The response of this substrate to ions is strikingly different from the response of HipHisLeu. […] This difficulty has been solved by the proper choice of extracting solvent. While a variety of organic solvents may be suitable for the extraction step, it is preferred to employ toluene. Approximately 88% of ^3 H-benzoylPhe enters the toluene phase while only 6% of the unhydrolyzed substrate enters the toluene phase, when toluene and the acidified reaction mixture are in approximately equal volumes at room temperature.

[7] abbreviates: sulfate 0.6 M, 0.1 M chloride, pH 8.

Consider `O=C(O)CNC(=O)CNC(=O)CNC(=O)c1ccccc1` [HipGlyGly] (Bz-Gly-Gly-Gly-OH), for which the “hydrolysis in the absence of NaCl” value in data set [1] (no NaCl, Na2SO4 0.001 M to 0.6 M) is “no hydrolysis”. For the same molecule, in data set [1] (setting [7]), the “decrease of Km by sulfate” value is reported as “about 15%” and the “increase of Vmax by sulfate” value is listed as “about 5 fold”.
Consider `CC(C)C[C@H](NC(=O)[C@H](Cc1c[nH]cn1)NC(=O)CNC(=O)c1ccccc1)C(=O)O` [HipHisLeu] (Bz-Gly-His-Leu-OH), for which the “reduction of Km by sulfate” value in data set [2] (0.75 M Na2SO4 in reaction mixture containing 0.1 M NaCl) is listed as “about 15 fold”. The “decrease in Km by sulfate” value in data set [2] (sulfate ion 0.75-1.1 M) is reported as 14 fold. Besides, in data set [3], the “inhibition on removal of sodium chloride from the reaction medium” value is listed as 92%. Also, the “Reaction Velocity - Percent of Substrate Hydrolyzed in 10 minutes” value (“Reaction Velocity - Percent” below) was 0% in data set [4] (0.05M Hepes pH 8.0, 0.0M NaCl, Na2SO4 0); 0% in data set [4] (0.05M Hepes pH 8.0, 0.0M NaCl, Na2SO4 0.1); 0% in data set [4] (0.05M Hepes pH 8.0, 0.0M NaCl, Na2SO4 0.2); 0% in data set [4] (0.05M Hepes pH 8.0, 0.0M NaCl, Na2SO4 0.3); 0.1% in data set [4] (0.05M Hepes pH 8.0, 0.0M NaCl, Na2SO4 0.4); 0.1% in data set [4] (0.05M Hepes pH 8.0, 0.0M NaCl, Na2SO4 0.5). Moreover, the “Reaction Velocity - Percent” value in data set [4] (0.05M Hepes pH 8.0, 0.0M NaCl, Na2SO4 0.6) was 0.25%; in data set [4] (0.05M Hepes pH 8.0, 0.0M NaCl, Na2SO4 0.7), 0.25%; in data set [4] (0.05M Hepes pH 8.0, 0.0M NaCl, Na2SO4 0.75) it was 0.25%; in data set [4] (0.05M Hepes pH 8.0, 0.0M NaCl, Na2SO4 0.8), 0.25%; in data set [4] (0.05M Hepes pH 8.0, 0.0M NaCl, Na2SO4 0.9) it was 0.7%; in data set [4] (0.05M Hepes pH 8.0, 0.0M NaCl, Na2SO4 1.2), 3.9%. In addition, the “Reaction Velocity - Percent” value is recorded as 0.3% in data set [4] (0.05M Hepes pH 8.0, 0.1M NaCl, Na2SO4 0); 4.1% in data set [4] (0.05M Hepes pH 8.0, 0.1M NaCl, Na2SO4 0.4); 8.3% in data set [4] (0.05M Hepes pH 8.0, 0.1M NaCl, Na2SO4 0.6).
Turning to `C[C@H](NC(=O)[C@H](Cc1ccccc1)NC(=O)c1ccccc1)C(=O)N1CCC[C@H]1C(=O)O` [benzoylPheAlaPro, benzoyl-Phe-Ala-Pro] (Bz-Phe-Ala-Pro-OH), the “extraction into ethyl acetate” value in data set [5] (reaction terminated with dilute hydrochloric acid) is given as “extracted almost quantitatively”. Moreover, the “fraction entering the toluene phase” value in data set [5] (toluene and acidified reaction mixture in approximately equal volumes, room temperature) turned out to be 6%. Moreover, the “Reaction Velocity - Percent” value is 4.4% in data set [4] (0.05 Hepes pH 8.0, 0.1 M NaCl, Na2SO4 0); 5.0% in data set [4] (0.05 Hepes pH 8.0, 0.1 M NaCl, Na2SO4 0.1); 5.6% in data set [4] (0.05 Hepes pH 8.0, 0.1 M NaCl, Na2SO4 0.5). Besides, in data set [6], the “increase of apparent reaction velocity by added NaCl” value is recorded as “approximately 3 fold”.
